Data from paper PMC6198068, “Discovery of a Novel Nav1.7 Inhibitor From Cyriopagopus albostriatus Venom With Potent Analgesic Efficacy” (Frontiers in Pharmacology, 2018).
Where a SMILES comes first, the peptide text is derived from it. Bridges are numbered along the chain shown (N, C = ends).

Columns and labels:
Nav1.4/N655D/Q657E = target: T1, Nav1.4/N655D/Q657E (Rattus norvegicus, UniProt P15390, N655D/Q657E); test: Whole-cell patch-clamp, Nav1.4/N655D/Q657E in HEK293T cells; format: cell-based
T1 construct: expressed in transfected cells; host or cells: HEK293T
T1 sequence (P15390 whole entry N655D/Q657E): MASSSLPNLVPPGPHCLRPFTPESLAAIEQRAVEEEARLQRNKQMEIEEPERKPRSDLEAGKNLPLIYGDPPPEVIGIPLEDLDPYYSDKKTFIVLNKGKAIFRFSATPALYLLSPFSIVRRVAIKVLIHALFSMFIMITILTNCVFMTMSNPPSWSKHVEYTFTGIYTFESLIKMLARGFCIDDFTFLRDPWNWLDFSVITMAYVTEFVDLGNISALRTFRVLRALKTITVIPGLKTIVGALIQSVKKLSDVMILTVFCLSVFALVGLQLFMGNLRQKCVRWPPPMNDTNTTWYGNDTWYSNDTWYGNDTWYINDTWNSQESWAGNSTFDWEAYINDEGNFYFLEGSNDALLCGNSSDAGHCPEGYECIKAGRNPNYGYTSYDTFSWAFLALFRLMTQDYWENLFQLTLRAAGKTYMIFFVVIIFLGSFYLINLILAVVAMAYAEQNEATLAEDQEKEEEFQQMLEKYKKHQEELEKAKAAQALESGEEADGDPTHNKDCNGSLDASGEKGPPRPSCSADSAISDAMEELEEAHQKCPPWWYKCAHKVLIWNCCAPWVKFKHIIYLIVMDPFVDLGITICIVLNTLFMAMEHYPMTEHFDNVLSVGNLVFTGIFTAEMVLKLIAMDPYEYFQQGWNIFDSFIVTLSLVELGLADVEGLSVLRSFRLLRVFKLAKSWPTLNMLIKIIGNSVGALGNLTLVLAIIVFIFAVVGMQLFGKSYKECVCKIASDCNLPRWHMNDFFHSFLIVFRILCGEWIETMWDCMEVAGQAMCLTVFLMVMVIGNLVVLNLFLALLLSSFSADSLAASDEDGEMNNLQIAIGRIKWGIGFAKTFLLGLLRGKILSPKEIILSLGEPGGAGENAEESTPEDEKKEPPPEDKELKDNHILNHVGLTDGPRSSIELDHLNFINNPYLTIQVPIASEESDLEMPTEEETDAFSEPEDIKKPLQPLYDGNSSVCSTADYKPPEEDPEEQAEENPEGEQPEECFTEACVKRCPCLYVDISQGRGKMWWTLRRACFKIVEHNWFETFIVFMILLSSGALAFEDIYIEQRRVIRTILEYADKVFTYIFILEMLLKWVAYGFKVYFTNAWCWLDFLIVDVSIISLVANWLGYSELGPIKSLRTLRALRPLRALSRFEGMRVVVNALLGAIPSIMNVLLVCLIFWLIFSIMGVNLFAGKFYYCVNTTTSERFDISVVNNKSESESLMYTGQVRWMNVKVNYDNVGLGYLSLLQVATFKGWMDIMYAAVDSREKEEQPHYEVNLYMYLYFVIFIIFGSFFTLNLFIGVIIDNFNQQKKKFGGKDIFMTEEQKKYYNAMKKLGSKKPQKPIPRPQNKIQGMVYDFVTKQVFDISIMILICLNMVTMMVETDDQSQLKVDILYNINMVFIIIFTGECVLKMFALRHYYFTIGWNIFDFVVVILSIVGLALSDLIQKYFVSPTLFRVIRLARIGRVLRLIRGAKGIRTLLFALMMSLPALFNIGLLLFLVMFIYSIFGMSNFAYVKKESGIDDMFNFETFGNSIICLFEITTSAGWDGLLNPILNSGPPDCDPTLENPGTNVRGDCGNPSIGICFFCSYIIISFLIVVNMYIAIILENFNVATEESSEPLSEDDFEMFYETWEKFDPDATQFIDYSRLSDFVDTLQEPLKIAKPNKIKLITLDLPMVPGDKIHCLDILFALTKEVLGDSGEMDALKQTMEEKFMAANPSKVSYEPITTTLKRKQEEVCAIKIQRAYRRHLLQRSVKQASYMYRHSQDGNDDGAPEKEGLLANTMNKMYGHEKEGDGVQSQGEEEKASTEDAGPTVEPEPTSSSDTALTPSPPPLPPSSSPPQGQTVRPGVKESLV
Text: (§1) The cDNA genes encoding rat Nav1.4 and human Nav1.7 were subcloned into vectors pRGB4 and pcDNA3.1-mod, respectively. Mutations of rNav1.4 (N655D, Q657E, and N655D/Q657E) and hNav1.7 (D816N, E818Q, and D816N/E818Q) were constructed using the Gene Tailor Site-Directed Mutagenesis system (Invitrogen, Carlsbad, CA, United States), according to the manufacturer’s instructions. Nav1.2–Nav1.7 and mutant plasmids together with eGFP were transiently transfected into HEK293T cells while Nav1.8 together with eGFP was transiently transfected into ND7/23 cells by Lipofectamine 2000 (Invitrogen, Carlsbad, CA, United States). Additionally, plasmids β1- and β2-eGFP encoding the human β1 and β2 subunits, respectively, were co-transfected with those encoding WT Nav1.7 and Nav1.7 mutations in HEK293T cells. […] Cells with green fluorescent protein fluorescence were selected for whole-cell patch-clamp recordings 24 h after transfection.
(§2) Whole-cell patch-clamp recordings were performed at room temperature (20–25°C) using an EPC 10 USB Patch Clamp Amplifier (HEKA, Elektronik, Lambrecht, Germany). […] Data was analyzed by software Igo Pro 6.10A (WaveMetrics, Lake Oswego, OR, United States), SigmaPlot 10.0 (Sigma-Aldrich, St. Louis, MO, United States), OriginPro 8 (OriginLab Corp., Northampton, MA, United States), and GraphPad Prism 5 (GraphPad Software, San Diego, CA, United States). […]

Human Nav1.9 = test: Whole-cell patch-clamp, Nav1.9 in ND7/23 cells; format: cell-based; settings: up to 10 μM, 50 ms to −40 mV from −120 mV, in presence of 1 μM TTX
Nav1.7 = target: T2, Nav1.7 (Homo sapiens, UniProt Q15858); test: Steady-state slow inactivation of Nav1.7; format: cell-based; settings: 0.2 μM; 15 s pre-pulses; control −52.62 ± 3.79 mV; P < 0.01 paired t-test; mean ± SEM, n = 6–11 cells
T2 construct: expressed in transfected cells; host or cells: HEK293T
T2 sequence (O60939 30-215): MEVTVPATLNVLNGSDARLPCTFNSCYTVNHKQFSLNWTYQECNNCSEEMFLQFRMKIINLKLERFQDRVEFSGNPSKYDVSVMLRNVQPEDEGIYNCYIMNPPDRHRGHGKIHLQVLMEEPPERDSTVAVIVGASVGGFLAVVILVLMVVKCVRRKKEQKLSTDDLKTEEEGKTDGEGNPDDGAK
T2 sequence (Q15858 other isoform, or with tags, fused parts or gaps): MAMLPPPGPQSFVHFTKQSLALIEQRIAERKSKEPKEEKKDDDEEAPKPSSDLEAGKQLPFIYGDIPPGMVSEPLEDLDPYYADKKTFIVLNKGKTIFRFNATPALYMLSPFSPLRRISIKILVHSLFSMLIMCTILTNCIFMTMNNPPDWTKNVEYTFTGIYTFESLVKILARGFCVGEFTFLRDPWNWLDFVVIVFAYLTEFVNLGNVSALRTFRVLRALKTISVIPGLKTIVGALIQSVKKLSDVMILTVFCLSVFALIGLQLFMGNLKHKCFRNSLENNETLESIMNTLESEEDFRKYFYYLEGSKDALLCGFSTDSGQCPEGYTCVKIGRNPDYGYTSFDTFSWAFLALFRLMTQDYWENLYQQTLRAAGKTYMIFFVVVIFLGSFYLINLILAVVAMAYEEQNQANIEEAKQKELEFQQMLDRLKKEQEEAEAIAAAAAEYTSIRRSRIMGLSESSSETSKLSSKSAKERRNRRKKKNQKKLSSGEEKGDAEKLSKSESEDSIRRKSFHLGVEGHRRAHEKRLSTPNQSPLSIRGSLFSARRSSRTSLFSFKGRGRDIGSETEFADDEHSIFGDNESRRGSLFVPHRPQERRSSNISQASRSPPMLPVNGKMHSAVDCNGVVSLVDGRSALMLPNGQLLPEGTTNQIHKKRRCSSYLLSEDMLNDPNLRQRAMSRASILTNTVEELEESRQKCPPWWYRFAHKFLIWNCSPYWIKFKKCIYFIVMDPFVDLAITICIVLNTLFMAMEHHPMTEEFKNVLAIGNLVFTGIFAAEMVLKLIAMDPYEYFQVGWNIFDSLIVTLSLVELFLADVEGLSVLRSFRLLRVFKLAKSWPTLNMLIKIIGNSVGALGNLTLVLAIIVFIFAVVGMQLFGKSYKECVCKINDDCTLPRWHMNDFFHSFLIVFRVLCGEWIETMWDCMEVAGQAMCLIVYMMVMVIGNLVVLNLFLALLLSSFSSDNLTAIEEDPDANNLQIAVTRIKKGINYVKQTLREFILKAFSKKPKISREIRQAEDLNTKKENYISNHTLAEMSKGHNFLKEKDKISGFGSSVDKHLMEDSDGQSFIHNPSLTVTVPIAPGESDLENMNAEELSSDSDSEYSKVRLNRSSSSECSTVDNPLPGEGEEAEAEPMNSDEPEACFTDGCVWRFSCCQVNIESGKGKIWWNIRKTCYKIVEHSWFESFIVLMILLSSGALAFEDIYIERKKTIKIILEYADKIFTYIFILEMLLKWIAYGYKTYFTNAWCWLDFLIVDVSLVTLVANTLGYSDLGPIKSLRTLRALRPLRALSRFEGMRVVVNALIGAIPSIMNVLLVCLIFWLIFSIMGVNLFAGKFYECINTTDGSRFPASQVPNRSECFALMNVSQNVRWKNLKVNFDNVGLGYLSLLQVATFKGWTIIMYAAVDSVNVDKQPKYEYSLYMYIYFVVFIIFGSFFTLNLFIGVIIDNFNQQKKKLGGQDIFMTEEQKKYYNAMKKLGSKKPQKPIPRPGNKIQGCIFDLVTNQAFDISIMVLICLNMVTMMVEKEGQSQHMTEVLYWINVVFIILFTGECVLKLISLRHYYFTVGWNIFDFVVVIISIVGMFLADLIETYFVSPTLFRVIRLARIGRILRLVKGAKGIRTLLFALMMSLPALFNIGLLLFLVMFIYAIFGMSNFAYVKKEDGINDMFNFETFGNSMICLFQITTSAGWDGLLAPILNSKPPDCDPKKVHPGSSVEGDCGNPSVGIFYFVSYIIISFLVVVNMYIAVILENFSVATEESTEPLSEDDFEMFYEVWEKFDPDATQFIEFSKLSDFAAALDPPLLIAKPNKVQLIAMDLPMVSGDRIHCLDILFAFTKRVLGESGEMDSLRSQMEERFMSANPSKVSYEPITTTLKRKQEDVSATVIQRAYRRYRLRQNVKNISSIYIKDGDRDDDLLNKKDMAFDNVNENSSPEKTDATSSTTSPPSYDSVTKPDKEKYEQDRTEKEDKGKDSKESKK
T2 sequence (Q07699 19-218, further chain): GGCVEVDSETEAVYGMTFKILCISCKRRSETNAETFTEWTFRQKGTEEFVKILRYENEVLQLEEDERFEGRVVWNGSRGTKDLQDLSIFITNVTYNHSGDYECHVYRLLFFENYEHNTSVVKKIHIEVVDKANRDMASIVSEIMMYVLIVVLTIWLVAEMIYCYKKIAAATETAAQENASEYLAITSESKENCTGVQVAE
Text: as §1, with “States).” for “States). Additionally, plasmids β1- and β2-eGFP encoding the human β1 and β2 subunits, respectively, were co-transfected with those encoding WT Nav1.7 and Nav1.7 mutations in HEK293T cells.”
as §2
Fast inactivation time constants were calculated by fitting current decay traces with a single exponential function using the I–V protocol described above. […]

hot plate test in mice = test: Hot plate test; format: in vivo, ICR mice; settings: 55 ± 1°C, 30 min after injection, control 10.6 ± 1.1 s, mean ± SEM, n = 6–8
Method: The ICR mice (18–22 g) used in this study were purchased from the Experimental Animal Center of SLac-kinda (Changsha, China). The animals were maintained at 20–25°C and freely allowed to standard rodent chow and water ad libitum. Ethical approval for in vivo experiments in animals was approved by the Animal Care and Use Committee (ACUC) at the Hunan Province Animal Management Office (HPAMO).
According to a previous method ([Meng et al., 2017]), a hot plate apparatus (model YLS-21A, Jinan, China) maintained at 55 ± 1°C, was used to measure the pain threshold of mice subjected to a thermal stimulus. Each female mouse was placed on hot plate to observe its pain response (hind-paw-licking or jumping) acted as its own control. The mice whose latent response times were shorter than 5 s or longer than 30 s were excluded from the test.

CC(C)C[C@H](NC(=O)[C@H](CC(=O)O)NC(=O)[C@H](Cc1ccc(O)cc1)NC(=O)[C@H](CCCCN)NC(=O)[C@@H]1CSSC[C@@H]2NC(=O)[C@H](CCCCN)NC(=O)[C@H](CC(=O)O)NC(=O)[C@H](CC(N)=O)NC(=O)[C@H](CO)NC(=O)[C@@H]3CCCN3C(=O)[C@H](CC(N)=O)NC(=O)[C@@H]3CSSC[C@H](NC(=O)[C@H](C(C)C)NC(=O)[C@H](CC(C)C)NC(=O)[C@H](CO)NC(=O)[C@H](CO)NC(=O)[C@H](CO)NC(=O)[C@H](CCCCN)NC(=O)[C@H](CSSC[C@H](NC(=O)[C@H](C)N)C(=O)N[C@@H](CC(C)C)C(=O)NCC(=O)N[C@@H](Cc4ccccc4)C(=O)NCC(=O)N[C@@H](CCC(=O)O)C(=O)N[C@@H](CCCCN)C(=O)N3)NC2=O)C(=O)N[C@@H](CO)C(=O)N[C@@H](CCC(N)=O)C(=O)N[C@@H](CCCCN)C(=O)N[C@@H](Cc2c[nH]cn2)C(=O)N[C@@H](CCCCN)C(=O)N[C@@H](Cc2c[nH]c3ccccc23)C(=O)N1)C(=O)O [Ca2a] (H-ACLGFGEKCNPSNDKCCKSSSLVCSQKHKWCKYDL-OH; disulfide 2-17, 9-24, 16-31 (inferred); N-terminus and C-terminus assumed)
inhibition of peak current of Nav1.4/N655D/Q657E (Nav1.4/N655D/Q657E; 1 μM, n = 4–5 cells): significantly inhibited
IC50 (Nav1.4/N655D/Q657E; mean ± SEM, n = 4–5 cells per data point): 238 ± 26.1 nM
inhibitory effect on Nav1.9 currents (Human Nav1.9): no inhibitory effects
steady-state slow inactivation potential of Nav1.7 (Nav1.7): −72.00 ± 2.76 mV
latency time, hot plate (hot plate test in mice; 50 μg/kg i.p.): 12.9 ± 0.8 s
latency time, hot plate (hot plate test in mice; 100 μg/kg i.p.): 15.4 ± 1.2 s
latency time, hot plate (hot plate test in mice; 200 μg/kg i.p.): 18.1 ± 1.6 s
